Reference: article PMC10985113, “Exploring bi-carbazole-linked triazoles as inhibitors of prolyl endo peptidase via integrated in vitro and in silico study” (Scientific Reports, 2024)

Columns and labels:
[1] = tested on: human fibroblast BJ cell line; assay: Cytotoxicity evaluation (MTT) on BJ cell line; format: cell-based; conditions: BJ cells; for Cytotoxicity effect / % Inhibition ± SEM (µM): 60 µM; for % Inhibition of cell viability (60 µM) / inhibition at 60 µM / % Inhibition ± SEM (µM): 48 h; for inhibition at 60 µM: Homo sapiens, read-out: % Inhibition ± SEM; for inhibition at 60 µM / % Inhibition ± SEM (µM): mean of three
Protocol: To investigate the cytotoxic effect of these compounds we proceeded all the active compounds 3–9 for their in-vitro study by using BJ cell line. Here we designed our experiment with a specific count of the cells with 6 × 10^4 cells/well were employed into the plate. In each well we added 100 µL followed by 24 h incubation at specific temperature 37 °C in 5% CO2. After that, the 96-well plate was incubated with 50 µL/well (60 µM) of the tested compounds along with 150 µL/well fresh media for 48 h at the similar specific experimental conditions. After 2nd time of incubation, the old media was replaced with 200 µL yellow MTT dye in each well according to 1:10 ratio with the media followed by 4-h incubation. In the next step the dye was removed completely and DMSO (Dimethyl sulfoxide) cell culture grade 100 µL/well was employed into the 96-well plate to dissolve the produced formazan crystals of MTT dye converted into purple. At the end of experiment the obtained changes in the (OD) optical density was monitored at 540 by using spectrophotometer.

[2] = tested on: prolyl endo peptidase; assay: Kinetic studies (Lineweaver-Burk, Dixon plots) on PEP; format: biochemical; conditions: for Ki: substrate Z-Gly-Pro-pNA 0.2-0.5 mM
Protocol: Secondary replot of Line weaver-Burk plot between the slopes of each line on-Line weaver-Burk plot versus different concentrations of compounds 7, 8 (B, E). Dixon plot of reciprocal of rate of reaction (velocities) versus different concentrations of compounds 7, 8 (C, F).
In kinetic study PEP (0.02 U/200 L) was incubated with a range of inhibitor different concentrations for 10 min at 30 °C. The substrate was often utilized at doses between 0.2 and 0.5 mM. The substrate solutions (Z-Gly-Pro-pNA) were added at four different concentrations (0.2, 0.3, 0.4, and 0.5 mM), starting with the lowest concentration and working up to the highest concentration, to begin the catalytic reaction. Using a 96-well plate reader, the catalytic activity of PEP was measured at 410 nm (SpectraMax-384, Molecular Devices, CA, USA).

[3] = target: prolyl endopeptidase (Elizabethkingia meningoseptica, UniProt P27028); assay: In vitro prolyl endopeptidase inhibitory assay (spectrophotometric, Z-Gly-Pro-4-nitroanilide substrate); format: biochemical; conditions: triplicate, ± SEM; read-out: (IC50 ± µM) in vitro prolyl endo peptidase inhibitory activity
Protocol: Prolyl endopeptidase inhibitory activity was measured using a slightly modified version of Yoshimoto et al. spectrophotometric technique. In a 96-well plate, 140 µL of sodium phosphate buffer (50 mM, pH 7.0), 20 µL of the test substance (0.5 mM in methanol), and 20 µL of prolyl endopeptidase solution (0.02 U/well) were added to provide a total reaction volume of […]. Blank contained 20 µL methanol, instead of the test compound, while Z-prolyl-prolinal (0.5 mM) was used as the positive control. After the reaction mixture had been incubated at 30 °C for 10 min. Now 20 µL of the substrate solution, Z-Gly-Pro-4-nitroanilide (0.4 mM in 1,4-dioxane), was added, and a 96-well plate reader was used to continually monitor the change in absorbance at 410 nm for 30 min (SpectraMax-384, Molecular Devices, CA, USA). The reaction mixture's ultimate methanol and 1,4-dioxane concentrations were 10% v/v. In 96-well microplates, each reaction was carried out in triplicate.
The current study's experiments were all carried out in triplicate, and the data were presented as the standard error of the mean (SEM). Using the statistical software EZ-FIT enzyme kinetics, the IC50 values were determined (Perrella Scientific, Inc., Amherst, NH 03031, USA). […] (1) and (2).1 %Inhibition=100-O.Dtestcompound/O.Dcontrol×100 2 SE=σ/n

prolyl endopeptidase, sequence (P27028 21-705): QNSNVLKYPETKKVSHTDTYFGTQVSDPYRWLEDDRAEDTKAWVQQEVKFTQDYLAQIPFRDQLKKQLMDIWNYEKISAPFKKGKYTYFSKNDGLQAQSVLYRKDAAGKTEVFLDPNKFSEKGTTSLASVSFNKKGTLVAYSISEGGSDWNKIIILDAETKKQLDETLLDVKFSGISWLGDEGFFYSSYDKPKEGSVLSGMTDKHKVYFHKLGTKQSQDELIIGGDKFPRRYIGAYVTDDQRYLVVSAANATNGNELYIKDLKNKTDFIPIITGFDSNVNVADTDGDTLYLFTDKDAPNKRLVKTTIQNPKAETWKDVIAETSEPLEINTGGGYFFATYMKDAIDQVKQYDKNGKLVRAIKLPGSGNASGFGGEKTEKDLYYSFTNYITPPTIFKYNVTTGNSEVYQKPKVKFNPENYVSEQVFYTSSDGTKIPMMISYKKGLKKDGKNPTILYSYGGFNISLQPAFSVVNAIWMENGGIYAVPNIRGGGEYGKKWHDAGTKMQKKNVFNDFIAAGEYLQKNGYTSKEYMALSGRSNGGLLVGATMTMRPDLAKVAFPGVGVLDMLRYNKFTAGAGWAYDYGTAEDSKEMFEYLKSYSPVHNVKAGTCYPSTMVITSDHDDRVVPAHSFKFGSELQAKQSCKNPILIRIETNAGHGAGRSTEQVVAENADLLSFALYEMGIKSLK

Molecule | Cytotoxicity effect [1] | % Inhibition of cell viability (60 µM) ([1]; first replicate column) | % Inhibition of cell viability (60 µM) ([1]; second replicate column) | % Inhibition of cell viability (60 µM) ([1]; third replicate column) | inhibition at 60 µM [1] | type (pattern) of inhibition [2] | Ki [2] | % Inhibition ± SEM (µM) [1] | IC50 [3]
C=Cn1c2ccccc2c2ccccc21 [Compound 3] | Non-toxic | 26.34% | 22.74% | 23.95% | 24.4 ± 1.1% | – | – | – | –
O=C(Cn1cc(Cn2c3ccccc3c3cc(-c4ccc5c(c4)c4ccccc4n5Cc4cn(CC(=O)c5ccccc5)nn4)ccc32)nn1)c1ccccc1 [Compound 5] | Non-toxic | 25.14% | 22.74% | 20.35% | 22.8 ± 1.38% | – | – | – | –
O=C(Cn1cc(Cn2c3ccccc3c3cc(-c4ccc5c(c4)c4ccccc4n5Cc4cn(CC(=O)c5ccc(Cl)cc5)nn4)ccc32)nn1)c1ccc(Cl)cc1 [Compound 7] | Non-toxic | 20.35% | 26.34% | 25.14% | – | mixed | 24.1 ± 0.0076 µM | 23.95 ± 1.83% | 26.3 ± 0.76 µM
Bacitracin [reference compound] | – | – | – | – | – | – | – | – | 125 ± 1.5 µM
O=C(Cn1cc(Cn2c3ccccc3c3cc(-c4ccc5c(c4)c4ccccc4n5Cc4cn(CC(=O)c5ccc(Br)cc5)nn4)ccc32)nn1)c1ccc(Br)cc1 [Compound 8] | Non-toxic | 19.52% | 25.14% | 25.14% | – | mixed | 23.67 ± 0.0084 µM | 23.27 ± 1.87% | 28.3 ± 0.64 µM
Cc1ccc(C(=O)Cn2cc(Cn3c4ccccc4c4cc(-c5ccc6c(c5)c5ccccc5n6Cc5cn(CC(=O)c6ccc(C)cc6)nn5)ccc43)nn2)cc1 [Compound 6] | Non-toxic | 21.55% | 20.35% | 23.95% | 21.9 ± 1.05% | – | – | – | –
COc1ccc(C(=O)Cn2cc(Cn3c4ccccc4c4cc(-c5ccc6c(c5)c5ccccc5n6Cc5cn(CC(=O)c6ccc(OC)cc6)nn5)ccc43)nn2)cc1 [Compound 9] | Non-toxic | 16.75% | 21.55% | 19.16% | – | – | – | 19.16 ± 1.38% | 31.1 ± 0.84 µM
C=Cn1c2ccccc2c2cc(-c3ccc4c(c3)c3ccccc3n4C=C)ccc21 [Compound 4] | Non-toxic | 22.75% | 21.55% | 26.34% | 23.6 ± 1.44% | – | – | – | –
